According to ChEMBL document CHEMBL1201862, “PubChem BioAssay data set” (2004):
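Compound exposure: 48 hours, 5 concentrations, 96-well plates. GI50 = concentration required for 50% inhibition of growth.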 Calls of active or inactive are those of the source. No stated cut-off is given here; in the data, active = GI50 up to about 1.1 µM and inactive = higher.

Experiments:
Experiment in all cases: NCI-60 cell line screen, 48 h
MOLT-4 = system: MOLT-4
DU-145 = system: DU-145
HOP-62 = system: HOP-62
HCC 2998 = system: HCC 2998
SF-539 = system: SF-539
NCI-H226 = system: NCI-H226
NCI/ADR-RES = system: NCI/ADR-RES
K562 = system: K562
HT-29 = system: HT-29
SNB-19 = system: SNB-19
TK-10 = system: TK-10
EKVX = system: EKVX
MCF7 = system: MCF7
M14 = system: M14
Hs-578T = system: Hs-578T
OVCAR-4 = system: OVCAR-4
OVCAR-5 = system: OVCAR-5
Malme-3M = system: Malme-3M
RXF 393 = system: RXF 393
HOP-92 = system: HOP-92

Measured: GI50

Clc1cc(Br)c2c3c(c(Br)cc(Cl)c13)C(Br)=C2Br
inactive: MOLT-4 19.8 µM | DU-145 28.4 µM | HOP-62 64.3 µM | HCC 2998 18.3 µM | SF-539 19 µM | NCI-H226 39.4 µM | NCI/ADR-RES 22.8 µM | K562 29 µM | HT-29 25.2 µM | SNB-19 > 100 µM | TK-10 21.8 µM | EKVX 28.6 µM | MCF7 34.8 µM | M14 28.2 µM | Hs-578T 33.1 µM | OVCAR-4 44.9 µM | OVCAR-5 44.2 µM | Malme-3M 27.6 µM

CCNc1nc2ccccc2nc1NCC
inactive: MOLT-4 > 100 µM | DU-145 > 100 µM | HCC 2998 > 100 µM | SF-539 > 100 µM | RXF 393 > 100 µM | NCI-H226 > 100 µM | NCI/ADR-RES > 100 µM | K562 > 100 µM | HT-29 > 100 µM | SNB-19 > 100 µM | TK-10 > 100 µM | EKVX > 100 µM | MCF7 > 100 µM | M14 > 100 µM | Hs-578T > 100 µM | OVCAR-5 > 100 µM | Malme-3M > 100 µM

Cc1ccc(S(=O)(=O)N(CC(O)COc2ccccc2)c2ccccc2Cl)cc1 (stereo unspecified)
inactive: MOLT-4 19.8 µM | DU-145 28.8 µM | HOP-62 20 µM | HCC 2998 19.5 µM | SF-539 18 µM | RXF 393 16 µM | NCI-H226 14.9 µM | NCI/ADR-RES 16.8 µM | K562 11.6 µM | HT-29 17.5 µM | SNB-19 18.2 µM | TK-10 14.2 µM | EKVX 13.6 µM | MCF7 20.5 µM | M14 16.5 µM | Hs-578T 10.9 µM | OVCAR-4 12.4 µM | OVCAR-5 23.3 µM | Malme-3M 14.5 µM

CN(CC(=O)O)c1ncc2c(n1)-c1ccccc1SC2
inactive: MOLT-4 > 100 µM | DU-145 > 100 µM | SF-539 > 100 µM | NCI/ADR-RES > 100 µM | HT-29 > 100 µM | SNB-19 > 100 µM | TK-10 > 100 µM | EKVX > 100 µM | HOP-92 > 100 µM | MCF7 69.8 µM | M14 > 100 µM | Hs-578T > 100 µM | OVCAR-4 > 100 µM | OVCAR-5 > 100 µM | Malme-3M 50.1 µM

O=C(c1cccc(OCc2ccccc2)c1OCc1ccccc1)N1CCSC1=S
inactive: MOLT-4 12.6 µM | DU-145 28.1 µM | HOP-62 27.2 µM | HCC 2998 28 µM | SF-539 33.3 µM | NCI-H226 23.8 µM | NCI/ADR-RES 10.6 µM | K562 9.35 µM | HT-29 25.2 µM | SNB-19 > 46.6 µM | TK-10 56.5 µM | EKVX 37.8 µM | HOP-92 18.1 µM | MCF7 23 µM | M14 33.2 µM | Hs-578T 2.29 µM | OVCAR-4 56.5 µM | OVCAR-5 71.3 µM | Malme-3M 23.6 µM

COc1ccc(-c2cc(-c3cc4cc(Br)ccc4nc3Cl)c(C#N)c(N)n2)cc1
inactive: MOLT-4 9.66 µM | DU-145 > 12.5 µM | HOP-62 > 12.5 µM | SF-539 > 12.5 µM | RXF 393 > 12.5 µM | NCI-H226 > 12.5 µM | NCI/ADR-RES > 12.5 µM | K562 > 12.5 µM | HT-29 > 12.5 µM | SNB-19 > 12.5 µM | EKVX > 12.5 µM | HOP-92 > 12.5 µM | MCF7 > 12.5 µM | M14 > 12.5 µM | Hs-578T > 12.5 µM | OVCAR-4 > 12.5 µM | OVCAR-5 10.7 µM | Malme-3M > 12.5 µM

COC(=O)C1Cc2ccc(C)cc2C1=O (stereo unspecified)
inactive: MOLT-4 > 100 µM | DU-145 > 100 µM | HOP-62 > 100 µM | HCC 2998 > 100 µM | SF-539 > 100 µM | NCI-H226 > 100 µM | NCI/ADR-RES > 100 µM | K562 > 100 µM | HT-29 > 100 µM | SNB-19 > 100 µM | TK-10 > 100 µM | EKVX > 100 µM | MCF7 > 100 µM | M14 > 100 µM | Hs-578T > 100 µM | OVCAR-4 > 100 µM | OVCAR-5 > 100 µM | Malme-3M > 100 µM

COc1ccc(N2C(=O)C3c4[nH]c5ccccc5c4C4CCC(C(C)(C)C)CC4C3C2=O)c(C)c1 (stereo unspecified)
inactive: MOLT-4 > 100 µM | DU-145 > 100 µM | HOP-62 > 100 µM | HCC 2998 > 100 µM | SF-539 > 100 µM | RXF 393 > 100 µM | NCI-H226 > 100 µM | NCI/ADR-RES > 100 µM | K562 > 100 µM | HT-29 > 100 µM | SNB-19 > 100 µM | TK-10 > 100 µM | EKVX > 100 µM | MCF7 > 100 µM | M14 > 100 µM | Hs-578T 51.3 µM | OVCAR-4 > 100 µM
